These results are taken from PMC10517971, “An inverse agonist of orphan receptor GPR61 acts by a G protein-competitive allosteric mechanism” (Nature Communications, 2023).

For assay [1], the target named is T1, HiBit-tagged wild-type GPR61 (Homo sapiens, UniProt Q9BZJ8).
T1 construct: expressed in transfected cells; host or cells: CHO-K1, transient (Fugene6)
In words: Receptor expression studies (HiBit surface and total expression), CHO-K1 cells. It counts as cell-based. The following applies: effect of compound, Fig. 2b, c. The source says: The human GPR61 (reference sequence NM_031936.4) cDNA was synthesized and subcloned into pcDNA5/FRT/TO (Thermo Fisher, Pittsburgh, PA). The pcDNA5/FRT/TO/ human GPR61 plasmid was then transfected into the Flp-In™-CHO Cell Line (Thermo Fisher, Pittsburgh, PA) and a doxycycline-inducible clonal cell line was selected (CHO TREx hGPR61 WT). Sequences encoding untagged and HiBit/hemagglutinin (HA)-tagged versions of the wild-type human GPR61 were synthesized and cloned into pcDNA3.1. The HiBit ([…]) and HA ([…]) tags were sequentially included after the N-terminal initiator methionine. […]
Parental CHO-K1 cells were maintained at 37 °C in a humidified environment (5% CO2) and grown in Dulbecco’s Modified Eagle Medium (DMEM) F-12 media (Gibco, 11320033) supplemented with 10% FBS, 1% Glutamax (Gibco, 35050061) and 100units/ml penicillin and streptomycin (Gibco, 15140122. Cells were dissociated using a cell dissociation solution (Gibco, 13151-014), counted, and resuspended in complete culture media without antibiotics. Cells were then transiently transfected using Fugene6 (Promega) in a 384-well plate format (Corning, 3570). For each well, 7500 cells were transfected with 5 ng of receptor plasmid, 20 ng of carrier DNA (Promega, PAE4881) and 0.075 μl Fugene6 in a final volume of 25 μl. […]
Background: With HiBiT, luminescence reflects the tagged protein that the partner subunit can reach.

The next assay addresses T2, human GPR101 (Homo sapiens, UniProt Q96P66).
T2 construct: expressed in transfected cells
In words: Functional cAMP assay (HTRF), stable CHO TREx human GPR101 cells. It is filed as cell-based. The following applies: Supplementary Table 2. The method, then: A homogeneous Time-Resolved Fluorescence (HTRF) assay (Perkin Elmer, Dynamic2 kit #) was used to assess receptor basal and inverse agonist activity at human GPR61, GPR62, and GPR101. For routine inverse agonist screening frozen CHO TREx human GPR61, GPR62 and GPR101 cells were used. Cells were thawed, resuspended in complete assay media (DMEM F-12, 10% HI FBS, 100 μg/mL Normocin, 700 μg/mL Hygromycin B and 15 μg/mL Blasticidin) containing 1ug/ml doxycycline, plated in white 384 well plates (Corning, 3570) at a density of 750 cells/well (25 μl/ well) and cultured at 37 °C in an incubator overnight. For studies assessing basal and inverse agonist activity at human GPR61 mutants, CHO-K1 cells were transiently transfected using Fugene6, plated in white 384 well plates (7500 cells/well) and grown overnight at 37 °C, as described for receptor expression studies. […] Data were analyzed using the ratio of fluorescence intensity at 620 and 665 nm for each well, extrapolated from the cAMP standard curve to express data as nM cAMP for each well. […]
Background: Cyclic AMP is a second messenger, typically raised through Gs and lowered through Gi signalling.

T1 sequence (Q9BZJ8 whole entry): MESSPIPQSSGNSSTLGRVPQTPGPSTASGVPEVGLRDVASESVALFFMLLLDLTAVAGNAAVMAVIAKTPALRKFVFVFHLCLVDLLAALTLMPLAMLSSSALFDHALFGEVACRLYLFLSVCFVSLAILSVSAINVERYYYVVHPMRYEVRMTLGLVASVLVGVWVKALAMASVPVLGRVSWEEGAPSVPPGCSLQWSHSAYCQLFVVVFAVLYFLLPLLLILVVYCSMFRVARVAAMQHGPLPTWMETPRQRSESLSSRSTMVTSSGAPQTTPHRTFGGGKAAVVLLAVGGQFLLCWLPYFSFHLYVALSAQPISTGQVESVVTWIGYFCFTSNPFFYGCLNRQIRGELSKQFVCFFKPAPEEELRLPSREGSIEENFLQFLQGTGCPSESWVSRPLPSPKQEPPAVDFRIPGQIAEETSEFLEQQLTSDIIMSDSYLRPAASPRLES
T2 sequence (Q96P66 whole entry): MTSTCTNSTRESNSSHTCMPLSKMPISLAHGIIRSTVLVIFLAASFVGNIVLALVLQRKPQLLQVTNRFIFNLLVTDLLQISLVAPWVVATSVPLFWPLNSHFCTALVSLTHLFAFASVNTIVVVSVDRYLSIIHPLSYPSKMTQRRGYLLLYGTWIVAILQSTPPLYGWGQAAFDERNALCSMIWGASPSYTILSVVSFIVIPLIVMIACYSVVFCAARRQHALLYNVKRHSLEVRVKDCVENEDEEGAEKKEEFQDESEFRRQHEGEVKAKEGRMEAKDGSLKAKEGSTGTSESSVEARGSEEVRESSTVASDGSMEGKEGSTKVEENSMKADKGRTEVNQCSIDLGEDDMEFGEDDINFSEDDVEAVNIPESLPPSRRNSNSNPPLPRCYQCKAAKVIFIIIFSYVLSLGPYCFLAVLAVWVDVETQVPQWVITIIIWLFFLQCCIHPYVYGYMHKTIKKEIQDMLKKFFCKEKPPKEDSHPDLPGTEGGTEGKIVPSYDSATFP

Broadly, the IC50 is the concentration at which inhibition is half-maximal. Turning to `CCOc1cc(C)nc(N(CCOC)S(=O)(=O)c2ccc(NCc3c(F)cncc3F)nc2OC)n1` [Compound 1], in assay [1], the “cell surface expression of HiBit-tagged wild-type GPR61” value is on record as “increased”. At human GPR101, this compound had an IC50 of more than 29.7 µM.
